Like-named read-outs stand apart in the source and are kept apart here.
How the values were obtained:
[1] = toxicology studies, single and/or multiple i.v. doses; assay type: in vivo, rats, rabbits, and monkeys
Procedure: In order to support the i.v. testing of dexanabinol of high enantiomeric purity in humans, a series of acute single-dose and sub-chronic multiple dose toxicology studies were conducted to establish the safety profile of the compound in rats, rabbits, and monkeys. The 2-week and 4-week multidose studies included complete clinical and morphological evaluations. In vitro/in vivo mutagenicity studies and special toxicological evaluations have also been carried out to evaluate the safety profile of dexanabinol. The toxicology studies employed doses that were multiples of the proposed clinical doses.

[2] = Phase II study, single i.v. dose in patients with severe head trauma; assay type: in vivo, human; details: human, plasma, iv, severe TBI patients, mean ± SE; for AUC / Cmax: up to 24 hr; for Vd: read-out: Vss
Procedure: A Phase II, double masked, multi-center study was conducted to evaluate the safety and tolerance of dexanabinol of high enantiomeric purity following a single intravenous administration in patients with severe head trauma (Knoller N. et al., Crit. Care Med. 30: 548-54, 2002). Treatment was administered within 6 hours of injury, based on the therapeutic window observed in relevant animal models. Additional objectives of the study were to evaluate the long-term outcome of the patients and to determine the optimal dose for Phase III studies.
Medical information was collected en route or upon arrival at the hospital to determine a patient's suitability for enrollment and a randomized patient number was assigned. Written informed consent was obtained from relatives, all eligible patients being in coma. Antihistamines (promethazine hydrochloride PHENERGAN® 25 mg and cimetidine 50 mg) were administered by intravenous bolus injection 15 minutes prior to study drug administration. Dexanabinol was manufactured and formulated as previously described (50 mg/ml in CREMOPHOR EL®:ethanol clinical formulation) and diluted into 100 ml saline prior to injection. Solutions of dexanabinol were infused intravenously using a peristaltic pump (Ivac) at a rate of 6 ml/min (or approximately 15 min/dose). The total doses of dexanabinol scheduled to be administered were 48, 150, or 200 mg per patient. Five milliliters of blood were removed (from the contralateral arm) at the end of the infusion, at 10 and 30 min, and at 1, 3, 6, 12, and 24 hours thereafter for determination of plasma dexanabinol concentrations. Pharmacokinetic parameters were estimated by non-compartmental methods (WinNonlin Professional version 3.2) up to 24 hr post-injection.
Primary end points included intracranial pressure (ICP), cardiovascular function (heart rate, mean arterial blood pressure, cerebral perfusion pressure and electrocardiogram), clinical laboratory tests, and adverse medical events. The clinical outcome was assessed by the Glasgow outcome scale throughout a six month follow-up period. The nature and incidence of adverse medical events were similar in all groups supporting the safety of dexanabinol of high enantiomeric purity. […] Dexanabinol is currently being tested in a Phase III clinical trial for TBI.

[3] = test system: inflammatory bowel disease (IBD) model; experiment: IBD induced by rectal 5% acetic acid solution; assay type: in vivo, Sprague Dawley male rats
Procedure: The pharmacological activity of dexanabinol of high enantiomeric purity in enema formulation was also tested and compared to oral and i.p. formulations, wherein oral delivery was performed using a hard gelatin capsule and i.p. delivery was performed using the CREMOPHOR EL®:ethanol formulation. IBD was induced in Sprague Dawley male rats, by rectal administration of a 5% acetic acid solution. The rectum was then washed with saline and animals were clinically observed (body weight, stool consistency and blood in stool) daily for 7 days. On the eighth day, the animals were sacrificed, their colon opened and gross pathology lesions were recorded (hyperemia, edema, number of erosions, ulcers, perforations and adhesions). Animals, at least six per group, were treated rectally (by enema) with either dexanabinol (5, 10, 20 or 40 mg/kg/day) or its vehicle or by oral gavage (20, 40, or 80 mg/kg/day or vehicle). Administration of acetic acid caused a decrease in body weight (up to 20%), changes in stool consistency (diarrhea) and appearance of blood in the stool 24 hours later. Spontaneous clinical healing was detected as animals regained weight and blood was no more evident in the stool. In the gross pathology scale, rectal dexanabinol 10 mg/kg had the best effect (more than 50% reduction of score) compared to its vehicle (p<0.05). […] The rectal dexanabinol dose of 10 mg/kg was pharmacologically equivalent to 20 mg/kg i.p. dose and 80 mg/kg oral dose.

[4] = 48 mg single i.v. infusion (n = 10)
[5] = 150 mg single i.v. infusion (n = 20)
[6] = 200 mg single i.v. infusion (n = 21)

With `CCCCCCC(C)(C)c1cc(O)c2c(c1)OC(C)(C)[C@H]1CC=C(CO)C[C@H]21` [dexanabinol, 1,1-dimethylheptyl-(3S,4S)-7-hydroxy-Δ^6-tetrahydrocannabinol] the tolerability ([1]; CREMOPHOR EL:ethanol formulation, single and/or multiple i.v. doses in rats, rabbits and monkeys) was “generally well tolerated”, the psychomimetic side effect ([1]; at dose tested, any of the animal species tested) was “no psychomimetic side effect” and the AUC(0-inf) [2, 4] was 572 ng·h/mL. It also gave an MRT [2, 4] of 4.1 ± 0.7 h, a clearance [2, 4] of 22.6 ± 3.9 mL/min/kg and a half-life [2, 4] of 7 ± 0.9 h. For the same molecule, the AUC [2, 4] was 548 ng·h/mL, the Cmax [2, 4] was 1150 ng/mL and the Vd [2, 4] was 6.6 ± 2.6 L/kg. The AUC(0-inf) [2, 5] was 1480 ng·h/mL, the MRT [2, 5] was 3.8 ± 0.4 h and the clearance [2, 5] was 31 ± 5.8 mL/min/kg. The half-life [2, 5] was 5.3 ± 0.5 h, the AUC [2, 5] was 1450 ng·h/mL and the Cmax [2, 5] was 1970 ng/mL. For the same molecule, the Vd [2, 5] was 7.5 ± 1.5 L/kg, the AUC(0-inf) [2, 6] was 3250 ng·h/mL and the MRT [2, 6] was 3.5 ± 0.3 h. It also gave a clearance [2, 6] of 17.6 ± 1.9 mL/min/kg, a half-life [2, 6] of 6.3 ± 0.3 h and an AUC [2, 6] of 3170 ng·h/mL. For the same molecule, the Cmax [2, 6] was 5790 ng/mL, the Vd [2, 6] was 4.2 ± 0.9 L/kg and the “i.p. dose pharmacologically equivalent to rectal dose of 10 mg/kg” value ([3]; i.p., CREMOPHOR EL:ethanol formulation) was 20 mg/kg. For the same molecule, the “oral dose pharmacologically equivalent to rectal dose of 10 mg/kg” value ([3]; oral) was 80 mg/kg, the “clinical disease severity compared to the vehicle” value ([3]; rectal 10 mg/kg) was “reduced also the clinical disease severity” and the “reduction of gross pathology score compared to vehicle” value ([3]; rectal (enema) 10 mg/kg, p<0.05) was “more than 50%”.
